The source of these data is ChEMBL document CHEMBL1949666, “Inhibition of human monoamine oxidase A and B by 5-phenoxy 8-aminoquinoline analogs” (Bioorg Med Chem Lett, 2012).

Experiment [1] has as its target T1, Amine oxidase [flavin-containing] B (Homo sapiens, UniProt P27338).
T1 sequence (P27338 whole entry): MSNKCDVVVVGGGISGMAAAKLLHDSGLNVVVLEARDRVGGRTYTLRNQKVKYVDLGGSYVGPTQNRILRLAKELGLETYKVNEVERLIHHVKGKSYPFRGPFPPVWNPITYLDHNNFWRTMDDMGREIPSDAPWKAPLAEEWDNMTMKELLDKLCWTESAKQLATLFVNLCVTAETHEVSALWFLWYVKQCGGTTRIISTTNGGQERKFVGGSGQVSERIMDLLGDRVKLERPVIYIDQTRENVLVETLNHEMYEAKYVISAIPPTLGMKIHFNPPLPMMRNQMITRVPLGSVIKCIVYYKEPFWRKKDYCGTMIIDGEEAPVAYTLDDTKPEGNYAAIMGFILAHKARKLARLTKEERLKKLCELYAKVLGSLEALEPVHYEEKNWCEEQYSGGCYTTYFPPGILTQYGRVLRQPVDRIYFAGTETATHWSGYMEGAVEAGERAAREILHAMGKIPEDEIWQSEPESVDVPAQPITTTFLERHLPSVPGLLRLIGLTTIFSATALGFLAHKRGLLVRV
The experiment is described as follows: Inhibition of human recombinant MAOB assessed as conversion of kynuramine to 4-hydroxyquinoline preincubated for 15 mins by fluorimetric assay.

Experiment [2] concerns the target T2, Amine oxidase [flavin-containing] A (Homo sapiens, UniProt P21397).
T2 sequence (P21397 whole entry): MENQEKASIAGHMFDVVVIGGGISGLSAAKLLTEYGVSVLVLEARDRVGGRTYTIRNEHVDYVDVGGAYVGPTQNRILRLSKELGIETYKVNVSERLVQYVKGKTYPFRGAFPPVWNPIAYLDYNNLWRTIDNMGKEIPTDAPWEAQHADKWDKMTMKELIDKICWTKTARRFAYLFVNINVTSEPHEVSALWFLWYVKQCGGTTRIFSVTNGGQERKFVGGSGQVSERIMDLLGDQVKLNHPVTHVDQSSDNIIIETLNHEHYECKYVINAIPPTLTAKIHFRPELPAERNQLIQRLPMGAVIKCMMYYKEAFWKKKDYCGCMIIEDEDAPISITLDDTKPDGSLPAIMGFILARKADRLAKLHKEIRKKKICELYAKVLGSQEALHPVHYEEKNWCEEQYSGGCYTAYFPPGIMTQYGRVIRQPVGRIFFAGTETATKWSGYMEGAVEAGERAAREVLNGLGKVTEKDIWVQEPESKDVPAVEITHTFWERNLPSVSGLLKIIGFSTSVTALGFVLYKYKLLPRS
The experiment can be described thus: Inhibition of human recombinant MAOA assessed as conversion of kynuramine to 4-hydroxyquinoline preincubated for 15 mins by fluorimetric assay.

The species entered for the next experiment is Homo sapiens. The experiment is described as follows: Selectivity index, ratio of IC50 for human recombinant MAOA to IC50 for human recombinant MAOB.

As a reminder, the IC50 is the concentration at which inhibition is half-maximal. Take `COc1cc(NC(C)CCCN)c2nccc(C)c2c1Oc1ccc(F)cc1` (stereo unspecified): the IC50 in experiment [1] came to 33.4 µM; in experiment [2], 9.7 µM. The Ratio IC50 in the experiment filed under Homo sapiens was 0.29.

`COc1cc(NC(C)CCCN)c2nccc(C)c2c1Oc1ccc(F)c(F)c1` (stereo unspecified): the values for the IC50 in experiment [1] and in experiment [2] were 3.65 µM and 22.7 µM, respectively. In addition, the Ratio IC50 in the experiment listed under Homo sapiens was 6.22.

With `COc1cc(NC(C)CCCN)c2nccc(C)c2c1Oc1cccc(F)c1` (stereo unspecified), the IC50 in experiment [1] worked out at 10.8 µM; in experiment [2], 3.22 µM. Moreover, the Ratio IC50 in the experiment listed under Homo sapiens is 0.3.

With `COc1cc(NC(C)CCCN)c2ncccc2c1` (stereo unspecified) [PRIMAQUINE], the IC50 in experiment [1] was found to be 94.5 µM. For the same molecule, the Ratio IC50 in the experiment filed under Homo sapiens is 0.8.
